Measurements taken from US20240327432A1, “THIOPHENE-PHENOTHIAZINE COMPOUNDS AND SYNTHESIS METHOD THEREOF, AS WELL AS APPLICATION THEREOF IN PREPARATION OF PHOTOTHERAPY MEDICINES” (Guangzhou Medical University, priority 2023, published 2024).

Experiments:
MCF-7 cells [1] = test: Dark toxicity measurement (CCK-8), MCF-7; format: cell-based; settings: Homo sapiens, MCF7, 24 h in dark, read-out: DK IC50 (dark toxicity)
Procedure: (§1) (1) Cell culture: HUVEC cells (human umbilical vein endothelial cells), A549 cells (human lung cancer cells), MCF-7 cells (human breast cancer cells), HeLa cells (human cervical cancer cells) and 4T1 cells (mouse breast cancer cells) were cultured in a DMEM high-glucose medium containing 10% fetal bovine serum and 1% penicillin-streptomycin at 37° C. and under a condition of a 5% carbon dioxide content. The HUVEC cells, the A549 cells, the MCF-7 cells, the HeLa cells and the 4T1 cells, at a logarithmic growth phase, were taken and inoculated into a 96-well plate, respectively, with approximately 1×10^4 cells per well, and incubation was performed overnight at 37° C. and under a condition of 5% CO2.
(§2) (2) Dark toxicity measurement: the cells were incubated in a dark environment with the compound of the present invention of different concentrations for 24 hours, and cell viability was measured by a CCK-8 method.

4T1 cells [2] = test: Dark toxicity measurement (CCK-8), 4T1; format: cell-based, mouse; settings: 24 h in dark, read-out: DK IC50 (dark toxicity)
Procedure: as §1, §2

MCF-7 cells [3] = test: Phototoxicity measurement (CCK-8), MCF-7; format: cell-based, human; settings: for IC50: Homo sapiens, MCF7, light or radiation study, 1 h incubation, 630 nm LED, 3.2 J cm^−2, then 24 h, read-out: PDK IC50 (phototoxicity)
Procedure: as §1
(§3) (3) Phototoxicity measurement: the cells were incubated in the dark with the compound of the present invention of different concentrations for 1 hour, rinsing was performed with PBS, a fresh culture solution was added, and the cells were irradiated with 630 nm LED light (light dose is 3.2 J cm^−2). Then the cells were incubated in the dark environment for 24 hours, and cell viability was measured by the CCK-8 method.

[4] = Fluorescence emission spectrum; format: physicochemical; settings: for λem (maximum fluorescence emission wavelength): excitation 650 nm, solvent methanol; for ϕF (fluorescence quantum yield): ϕF of MB as reference (0.04, methanol)
Procedure: Detection of the thiophene-phenothiazine compounds prepared in Examples 1-5: the absorption spectrum of the thiophene-phenothiazine compound in an ethanol solution was measured by using a UV-visible spectrophotometer, and spectral properties of the thiophene-phenothiazine compound were analyzed according to Beer-Lambert law; […] with a wavelength of 650 nm, and results are shown in Table 1 and FIGS. 2-3.
(§4) • a. Absorbance was measured in ethanol. • b. During fluorescence emission spectrum measurement, an excitation wavelength was 650 nm, and a solvent was methanol. • c. ϕF of MB was used as a reference [ϕF=0.04, methanol].

A549 cells [5] = test: Dark toxicity measurement (CCK-8), A549; format: cell-based; settings: Homo sapiens, 24 h in dark, read-out: DK IC50 (dark toxicity)
Procedure: as §1, §2

HeLa cells [6] = test: Phototoxicity measurement (CCK-8), HeLa; format: cell-based, human; settings: for IC50: Homo sapiens, light or radiation study, 1 h incubation, 630 nm LED, 3.2 J cm^−2, then 24 h, read-out: PDK IC50 (phototoxicity)
Procedure: as §1, §3

4T1 cells [7] = test: Phototoxicity measurement (CCK-8), 4T1; format: cell-based, mouse; settings: for IC50: 1 h incubation, 630 nm LED, 3.2 J cm^−2, then 24 h, read-out: PDK IC50 (phototoxicity)
Procedure: as §1, §3

HUVEC cells = test: Dark toxicity measurement (CCK-8), HUVEC; format: cell-based; settings: Homo sapiens, 24 h in dark
Procedure: as §1, §2

HeLa cells [8] = test: Dark toxicity measurement (CCK-8), HeLa; format: cell-based; settings: Homo sapiens, 24 h in dark, read-out: DK IC50 (dark toxicity)
Procedure: as §1, §2

[9] = Absorption spectrum by UV-visible spectrophotometer; format: physicochemical; settings: measured in ethanol
Procedure: Detection of the thiophene-phenothiazine compounds prepared in Examples 1-5: the absorption spectrum of the thiophene-phenothiazine compound in an ethanol solution was measured by using a UV-visible spectrophotometer, and spectral properties of the thiophene-phenothiazine compound were analyzed according to Beer-Lambert law; and a fluorescence emission spectrum of the thiophene-phenothiazine compound in the ethanol solution was measured under excitation of light with a wavelength of 650 nm, and results are shown in Table 1 and FIGS. 2-3.
as §4

A549 cells [10] = test: Phototoxicity measurement (CCK-8), A549; format: cell-based, human; settings: for IC50: Homo sapiens, light or radiation study, 1 h incubation, 630 nm LED, 3.2 J cm^−2, then 24 h, read-out: PDK IC50 (phototoxicity)
Procedure: as §1, §3

[11] = test system: subcutaneous breast cancer (4T1) tumor model; test: In vivo PDT inhibition of breast cancer growth; parameters: species or system BALB/c mice; settings: 21 days
From the text: (§5) 7-week-old BALB/c female mice weighing 18 g±1 g (purchased from Zhejiang Vital River Laboratory Animal Technology Co., Ltd) were used to construct a subcutaneous breast cancer (4T1) tumor model. When tumor volumes of the BALB/c mice were approximately 100 mm^3, in vivo anti-tumor experiments began. When the tumor volumes of the BALB/c mice were approximately 200 mm^3, imaging experiments began.
The BALB/c mice with the tumor volumes of approximately 100 mm^3 were taken, and the tumor bearing mice were divided into 4 groups, namely groups A, B, C and D, with 5 mice in each group. The mice in the group A and the group B were injected with 1×PBS 100 μL via tail veins. In addition, the mice in the group C and the group D were injected with compound I-3 via the tail veins at a dose of 1.6 mg/kg; and after 2 hours, the mice in the group B and the group D were irradiated with a light source (655 nm, 300 mW cm^2) for 10 minutes. Body weights and tumor volumes of the mice were measured on the 2nd day, 4th day, 8th day, 12th day, 16th day, and 21st day, respectively. On the 21st day, approximately 0.8 mL of mouse blood was collected using an eyeball blood sampling method, of which 0.4 mL of the mouse blood was placed in an EDTA-2K anticoagulant tube, and the remaining 0.4 mL of the mouse blood was centrifuged for serum collection.

4T1 subcutaneous tumors = test: Distribution in 4T1 subcutaneous tumors of mice (imaging); format: in vivo, BALB/c mice; settings: 1.6 mg/kg via tail vein
Procedure: as §5
A solution of 10 mg/L was prepared from the compound I-3 of the present invention by using 1×PBS. The BALB/c mice with the tumor volumes of approximately 200 mm^3 were taken, and the solution was injected into tumor bearing mice via tail veins at a dose of 1.6 mg/kg. Imaging photos were taken at different times using Odyssey CLX, with excitation light of 680 nm and detection light of 720 nm. […] Therefore, the thiophene-phenothiazine compound of the present invention can be completely metabolized within 24 hours, effectively solving a metabolic problem in existing PDT treatment mentioned above.

[12] = Singlet oxygen generation, DPBF steady-state method; format: physicochemical; settings: 2 μM in EtOH, 630 nm LED, irradiation for 20 s
Procedure: The efficiency of producing singlet oxygen through photosensitization is an important index for evaluating the photosensitizers. In the example, a conventional steady-state method was used, 1,3-diphenylisobenzofuran (DPBF) was used as a scavenger, which irreversibly reacted with the singlet oxygen to cause attenuation of the DPBF. An attenuation rate of the DPBF reflects production efficiency of ^1O2. Concentrations of the DPBF in EtOH at multiple irradiation time periods were measured by using a UV/Vis spectrum method.

[13] = Photostability under continuous LED irradiation; format: physicochemical; settings: 630 nm LED, 106 mW cm^−2, FIG. 4
Procedure: Good photostability is a prerequisite for ensuring continuous generation of ROS by the photosensitizers under light excitation, which can effectively prevent decomposition of the photosensitizers after illumination, avoiding a decrease in a ROS generation rate with increasing illumination time. An LED light source (630 nm, 106 mW cm^−2) was used to continuously irradiate the compound (5 μM), and a UV-visible spectrophotometer was used to measure the absorption spectrum of the compound at 200-800 nm. The photostability of the compound was evaluated by comparing changes in maximum absorption values at 600-800 nm after different irradiation times.
Result diagrams of other compounds are similar to that of the compound I-3.

[14] = Mus musculus, light or radiation study

| Compound | IC50 (MCF-7 cells [1]) [nM] | IC50 (4T1 cells [2]; Mus musculus) [nM] | PI (phototherapeutic index) (MCF-7 cells [3]) | IC50 (MCF-7 cells [3]) [nM] | λem (maximum fluorescence emission wavelength) [4] [nm] | ϕF (fluorescence quantum yield) [4] | IC50 (A549 cells [5]) [nM] | PI (phototherapeutic index) (HeLa cells [6]) | IC50 (HeLa cells [6]) [nM] | PI (phototherapeutic index) (4T1 cells [7]) | IC50 (4T1 cells [7]; [14]) [nM] | IC50 (HUVEC cells) [nM] | IC50 (HeLa cells [8]) [nM] | λmax (maximum absorption wavelength) [9] [nm] | PI (phototherapeutic index) (A549 cells [10]) | IC50 (A549 cells [10]) [nM] | also measured |
| --- | --- | --- | --- | --- | --- | --- | --- | --- | --- | --- | --- | --- | --- | --- | --- | --- | --- |
| CCN(CC)c1ccc2c(c1)S(Cl)=c1cc(N)c3ccsc3c1=N2 (stereo not drawn) [Compound I-1] | 3560 | 15400 | 9.03 | 390 | 692 | 0.4 | 7540 | 10.26 | 360 | 17.69 | 870 | 25200 | 3740 | 663 | 16.47 | 460 |  |
| CCN(CC)c1ccc2c(c1)S(Cl)=c1cc(NC)c3ccsc3c1=N2 (stereo not drawn) [Compound I-2] | 2030 | 9790 | 14.2 | 140 | 698 | 0.5 | 6930 | 23.49 | 130 | 24.41 | 400 | 17600 | 3140 | 671 | 21.66 | 320 |  |
| CCCNc1cc2c(c3sccc13)=Nc1ccc(N(CC)CC)cc1S=2Cl (stereo not drawn) [Compound I-3] | 2860 | 8670 | 24.00 | 120 | 700 | 0.6 | 6590 | 32.72 | 70 | 44.51 | 190 | 13600 | 2400 | 673 | 31.35 | 210 | growth of tumor volumes ([11]; group C: 1.6 mg/kg i.v. alone, no irradiation): did not show tumor growth inhibition; growth of tumor volumes ([11]; group D: 1.6 mg/kg i.v. + light 655 nm, 10 minutes, after 2 hours): significantly inhibited; time within which metabolized in mice (4T1 subcutaneous tumors): ≤ 24 h; time after which compound gradually accumulates in tumors (4T1 subcutaneous tumors; 4T1 tumor bearing mice): 1 h; time of maximum accumulation in the tumors (4T1 subcutaneous tumors; 4T1 tumor bearing mice): 2 h; imaging signal after 24 hours (4T1 subcutaneous tumors; 24 hours): basically not detected; photosensitive efficiency (1O2, DPBF attenuation) [12]: 80%; change of maximum absorption value as irradiation time increases (photostability) [13]: does not show a significant change |
| CCCCCNc1cc2c(c3sccc13)=Nc1ccc(N(CC)CC)cc1S=2Cl (stereo not drawn) [Compound I-4] | 3490 | 5480 | 9.05 | 390 | 701 | 0.5 | 3490 | 4.32 | 440 | 4.16 | 1320 | 10400 | 1890 | 673 | 11.09 | 310 |  |
| CCCCCCCNc1cc2c(c3sccc13)=Nc1ccc(N(CC)CC)cc1S=2Cl (stereo not drawn) [Compound I-5] | 3340 | 4270 | 7.11 | 470 | 700 | 0.6 | 3570 | 3.32 | 430 | 2.22 | 1920 | 7630 | 1440 | 674 | 8.57 | 420 |  |
| CN(C)c1ccc2nc3ccc(=[N+](C)C)cc-3sc2c1 [MB, Methylene blue, reference compound] |  |  |  |  |  |  |  |  |  |  |  |  |  |  |  |  | IC50 (4T1 cells [2]): 25700 nM; IC50 (4T1 cells [7]): 14100 nM |
